The experiment has as its system A375 melanoma cells (B-Raf V600E mutation). Briefly: A375 (A375_P-ERK) cell activity / cell growth inhibition assay. In kind it is cell-based, human. As to conditions: Homo sapiens, A-375; A375 cells (text: A375_P-ERK). As to the method:
Compounds are assessed in a variety of cell based assays. For example human cell lines with B-RafV600E mutation (A375 melanoma, SKMEL3 melanoma, and COLO205 colon adenocarcinoma), as well as tumorigenic cell lines with wild-type B-RAF (SW620 colon adenocarcinoma) or with Ras mutations (SKMEL2 melanoma and IPC298 melanoma).
On day 1, cells are counted, then centrifuged in a conical tube for 5 minutes at 1000 rpm.
On day 2, compound at a maximum concentration of 5 mM is serially diluted 1:3 (e.g. 10 μL with 30 μL dimethyl sulfoxide) for a total of 8 point titration with DMSO as a control. A 1 μL aliquot of each dilution point and control is added to 249 μL growth media and 50 μL is added to a well containing cells, providing 10 μM compound at the maximum concentration point. The cells are incubated for 3 days at 37° C. in 5% CO2.
ATPlite is added 25 μL to each well, shake for 2 minutes, and the cells are incubated at room temperature for 10 minutes, then luminescence is read on Safire reader. The measured luminescence correlates directly with cell number, such that the reading as a function of compound concentration is used to determine the IC50 value.

The structures appear in SMILES notation. A value given as a limit tells only on which side of the number the result lay.

One may read the IC50 as the midpoint of a concentration-inhibition curve. A higher IC50 goes with lower potency.

In turn, `COc1ncc(-c2cnc3[nH]cc(C(=O)c4cccc(NS(=O)(=O)N5CCCC5)c4F)c3c2)c(OC)n1` [P-0044, N-[3-[5-(2,4-dimethoxypyrimidin-5-yl)-1H-pyrrolo[2,3-b]pyridine-3-carbonyl]-2-fluoro-phenyl]pyrrolidine-1-sulfonamide] gave an IC50 of less than 1 µM.
`Cc1ccc(-c2cnc3[nH]cc(C(=O)c4cccc(NS(=O)(=O)N5CCCC5)c4F)c3c2)cn1` [P-0045, N-[2-fluoro-3-[5-(6-methyl-3-pyridyl)-1H-pyrrolo[2,3-b]pyridine-3-carbonyl]phenyl]pyrrolidine-1-sulfonamide] came in with an IC50 of less than 1 µM.
Turning to `CC(C)c1ncc(-c2cnc3[nH]cc(C(=O)c4cccc(NS(=O)(=O)N5CCCC5)c4F)c3c2)cn1` [P-0047, N-[2-fluoro-3-[5-(2-isopropylpyrimidin-5-yl)-1H-pyrrolo[2,3-b]pyridine-3-carbonyl]phenyl]pyrrolidine-1-sulfonamide], the IC50 is less than 1 µM.
Under `COc1cc(-c2cnc3[nH]cc(C(=O)c4cccc(NS(=O)(=O)N5CCCC5)c4F)c3c2)ccc1C#N` [P-0049, N-[3-[5-(4-cyano-3-methoxy-phenyl)-1H-pyrrolo[2,3-b]pyridine-3-carbonyl]-2-fluoro-phenyl]pyrrolidine-1-sulfonamide] stands less than 1 µM; under `N#CC1(c2ccc(-c3cnc4[nH]cc(C(=O)c5cccc(NS(=O)(=O)N6CCCC6)c5F)c4c3)cc2)CC1` [P-0050, N-[3-[5-[4-(1-cyanocyclopropyl)phenyl]-1H-pyrrolo[2,3-b]pyridine-3-carbonyl]-2-fluoro-phenyl]pyrrolidine-1-sulfonamide], less than 1 µM; under `CC(C)c1ncc(-c2cnc3[nH]cc(C(=O)c4cccc(NS(=O)(=O)N(C)C)c4F)c3c2)cn1` [P-0051, 3-[3-(dimethylsulfamoylamino)-2-fluoro-benzoyl]-5-(2-isopropylpyrimidin-5-yl)-1H-pyrrolo[2,3-b]pyridine], less than 1 µM.
The compound `CN(C)S(=O)(=O)Nc1cccc(C(=O)c2c[nH]c3ncc(-c4cnc(C5CC5)nc4)cc23)c1F` [P-0052, 5-(2-cyclopropylpyrimidin-5-yl)-3-[3-(dimethylsulfamoylamino)-2-fluoro-benzoyl]-1H-pyrrolo[2,3-b]pyridine] yielded an IC50 of less than 1 µM.
With `CN(C)S(=O)(=O)Nc1cccc(C(=O)c2c[nH]c3ncc(-c4ccc(C(F)(F)F)nc4)cc23)c1F` [P-0053, 3-[3-(dimethylsulfamoylamino)-2-fluoro-benzoyl]-5-[6-(trifluoromethyl)-3-pyridyl]-1H-pyrrolo[2,3-b]pyridine] the figure was less than 1 µM.
For the compound `COc1cc(-c2cnc3[nH]cc(C(=O)c4cccc(NS(=O)(=O)N(C)C)c4F)c3c2)ccc1C#N` [P-0054, 5-(4-cyano-3-methoxy-phenyl)-3-[3-(dimethylsulfamoylamino)-2-fluoro-benzoyl]-1H-pyrrolo[2,3-b]pyridine], the IC50 is less than 1 µM.
In the case of `CN(C)S(=O)(=O)Nc1cccc(C(=O)c2c[nH]c3ncc(-c4ccc(C5(C#N)CC5)cc4)cc23)c1F` [P-0055, 5-[4-(1-cyanocyclopropyl)phenyl]-3-[3-(dimethylsulfamoylamino)-2-fluoro-benzoyl]-1H-pyrrolo[2,3-b]pyridine], the IC50 was less than 1 µM.
`CCN(C)S(=O)(=O)Nc1cccc(C(=O)c2c[nH]c3ncc(-c4cnc(C)nc4)cc23)c1F` [P-0056, 3-[3-[[ethyl(methyl)sulfamoyl]amino]-2-fluoro-benzoyl]-5-(2-methylpyrimidin-5-yl)-1H-pyrrolo[2,3-b]pyridine] yielded an IC50 of less than 1 µM.
Under `CCN(C)S(=O)(=O)Nc1cccc(C(=O)c2c[nH]c3ncc(-c4cnc(C(C)C)nc4)cc23)c1F` [P-0057, 3-[3-[[ethyl(methyl)sulfamoyl]amino]-2-fluoro-benzoyl]-5-(2-isopropylpyrimidin-5-yl)-1H-pyrrolo[2,3-b]pyridine] stands less than 1 µM; under `CCN(C)S(=O)(=O)Nc1cccc(C(=O)c2c[nH]c3ncc(-c4cnc(C5CC5)nc4)cc23)c1F` [P-0058], less than 1 µM; under `CCN(C)S(=O)(=O)Nc1cccc(C(=O)c2c[nH]c3ncc(-c4ccc(C(F)(F)F)nc4)cc23)c1F` [P-0059, 3-[3-[[ethyl(methyl)sulfamoyl]amino]-2-fluoro-benzoyl]-5-[6-(trifluoromethyl)-3-pyridyl]-1H-pyrrolo[2,3-b]pyridine], less than 1 µM.
Regarding `CCN(C)S(=O)(=O)Nc1cccc(C(=O)c2c[nH]c3ncc(-c4ccc(C#N)c(OC)c4)cc23)c1F` [P-0060, 5-(4-cyano-3-methoxy-phenyl)-3-[3-[[ethyl(methyl)sulfamoyl]amino]-2-fluoro-benzoyl]-1H-pyrrolo[2,3-b]pyridine], the IC50 was less than 1 µM.
Consider `O=C(c1cccc(NS(=O)(=O)N2CCCC2)c1F)c1c[nH]c2ncc(-c3ccc(F)cc3)cc12` [P-0062, N-[2-fluoro-3-[5-(4-fluorophenyl)-1H-pyrrolo[2,3-b]pyridine-3-carbonyl]phenyl]pyrrolidine-1-sulfonamide], for which the IC50 is less than 1 µM.
On to `O=C(c1cccc(NS(=O)(=O)N2CCCC2)c1F)c1c[nH]c2ncc(-c3ccccc3)cc12` [P-0063, N-[2-fluoro-3-(5-phenyl-1H-pyrrolo[2,3-b]pyridine-3-carbonyl)phenyl]pyrrolidine-1-sulfonamide], for which the IC50 is less than 1 µM.
Compound `CN(C)S(=O)(=O)Nc1cccc(C(=O)c2c[nH]c3ncc(-c4cnc(NC5CC5)nc4)cc23)c1F` [P-0064, 5-[2-(cyclopropylamino)pyrimidin-5-yl]-3-[3-(dimethylsulfamoylamino)-2-fluoro-benzoyl]-1H-pyrrolo[2,3-b]pyridine] returned an IC50 of less than 1 µM.
In turn, `COCCS(=O)(=O)Nc1cccc(C(=O)c2c[nH]c3ncc(-c4cnc(OC)nc4)cc23)c1F` [P-0065, N-[2-fluoro-3-[5-(2-methoxypyrimidin-5-yl)-1H-pyrrolo[2,3-b]pyridine-3-carbonyl]phenyl]-2-methoxy-ethane sulfonamide] displayed an IC50 of less than 1 µM.
For `CC(C)CN(C)S(=O)(=O)Nc1cccc(C(=O)c2c[nH]c3ncc(I)cc23)c1F` [P-0070, 3-[2-fluoro-3-[[isobutyl(methyl)sulfamoyl]amino]benzoyl]-5-iodo-1H-pyrrolo[2,3-b]pyridine], the IC50 was less than 1 µM.
For the compound `CC(C)NS(=O)(=O)Nc1cccc(C(=O)c2c[nH]c3ncc(I)cc23)c1F` [P-0071, [2-fluoro-3-(isopropylsulfamoylamino)phenyl]-(5-iodo-1H-pyrrolo[2,3-b]pyridin-3-yl)methanone], the IC50 was less than 1 µM.
With `COc1ncc(-c2cnc3[nH]cc(C(=O)c4cccc(NS(=O)(=O)N(C)CC(C)C)c4F)c3c2)cn1` [P-0072, 3-[2-fluoro-3-[[isobutyl(methyl)sulfamoyl]amino]benzoyl]-5-(2-methoxypyrimidin-5-yl)-1H-pyrrolo[2,3-b]pyridine] the figure was less than 1 µM; with `COCCN(C)S(=O)(=O)Nc1cccc(C(=O)c2c[nH]c3ncc(-c4cnc(OC)nc4)cc23)c1F` [P-0073, 3-[2-fluoro-3-[[2-methoxyethyl(methyl)sulfamoyl]amino]benzoyl]-5-(2-methoxypyrimidin-5-yl)-1H-pyrrolo[2,3-b]pyridine], less than 1 µM.
On to `COc1ncc(-c2cnc3[nH]cc(C(=O)c4cccc(NS(=O)(=O)N5CCCC5C)c4F)c3c2)cn1` (stereo not drawn) [P-0074, N-[2-fluoro-3-[5-(2-methoxypyrimidin-5-yl)-1H-pyrrolo[2,3-b]pyridine-3-carbonyl]phenyl]-2-methyl-pyrrolidine-1-sulfonamide], for which the IC50 was less than 1 µM.
`CCN(C)S(=O)(=O)Nc1cccc(C(=O)c2c[nH]c3ncc(-c4ccc(N(C)C)nc4)cc23)c1F` [P-0076, 5-[6-(dimethylamino)-3-pyridyl]-3-[3-[[ethyl(methyl)sulfamoyl]amino]-2-fluoro-benzoyl]-1H-pyrrolo[2,3-b]pyridine] displayed an IC50 of less than 1 µM.
On to `CCN(C)S(=O)(=O)Nc1cccc(C(=O)c2c[nH]c3ncc(-c4cnc(NC5CC5)nc4)cc23)c1F` [P-0077, 5-[2-(cyclopropylamino)pyrimidin-5-yl]-3-[3-[[ethyl(methyl)sulfamoyl]amino]-2-fluoro-benzoyl]-1H-pyrrolo[2,3-b]pyridine], for which the IC50 was less than 1 µM.
Under `CCCN(C)S(=O)(=O)Nc1ccc(F)c(C(=O)c2c[nH]c3ncc(-c4cnc(C5CC5)nc4)cc23)c1F` [P-0078, 5-(2-cyclopropylpyrimidin-5-yl)-3-[2,6-difluoro-3-[[methyl(propyl)sulfamoyl]amino]benzoyl]-1H-pyrrolo[2,3-b]pyridine] stands less than 1 µM; under `COCCN(C)S(=O)(=O)Nc1cccc(C(=O)c2c[nH]c3ncc(-c4ccc(C5(C#N)CC5)cc4)cc23)c1F` [P-0080, 5-[4-(1-cyanocyclopropyl)phenyl]-3-[2-fluoro-3-[[2-methoxyethyl(methyl)sulfamoyl]amino]benzoyl]-1H-pyrrolo[2,3-b]pyridine], less than 1 µM.
Under `COCCN(C)S(=O)(=O)Nc1cccc(C(=O)c2c[nH]c3ncc(-c4cnc(NC5CC5)nc4)cc23)c1F` [P-0081, 5-[2-(cyclopropylamino)pyrimidin-5-yl]-3-[2-fluoro-3-[[2-methoxyethyl(methyl)sulfamoyl]amino]benzoyl]-1H-pyrrolo[2,3-b]pyridine] stands less than 1 µM; under `CN(CC1CC1)S(=O)(=O)Nc1cccc(C(=O)c2c[nH]c3ncc(-c4cnc(C5CC5)nc4)cc23)c1F` [P-0084, 3-[3-[[cyclopropylmethyl(methyl)sulfamoyl]amino]-2-fluoro-benzoyl]-5-(2-cyclopropylpyrimidin-5-yl)-1H-pyrrolo[2,3-b]pyridine], less than 1 µM.

The values above are taken from patent US11337976B2 (Plexxikon Inc., priority 2011, dated 2022).
